Format in all cases: cell-based
The target of one assay is human TRPA1 (hTRPA1) (Homo sapiens, UniProt O75762). In words: whole-cell patch clamp in HEK293T cells; inhibits AITC currents at […] and weakly activates alone.
For assay [1], the target named is T1, mouse anoctamin 1 (mANO1) (Mus musculus, UniProt Q8BHY3).
T1 construct: gene Ano1
T1 sequence (Q8BHY3 1-960): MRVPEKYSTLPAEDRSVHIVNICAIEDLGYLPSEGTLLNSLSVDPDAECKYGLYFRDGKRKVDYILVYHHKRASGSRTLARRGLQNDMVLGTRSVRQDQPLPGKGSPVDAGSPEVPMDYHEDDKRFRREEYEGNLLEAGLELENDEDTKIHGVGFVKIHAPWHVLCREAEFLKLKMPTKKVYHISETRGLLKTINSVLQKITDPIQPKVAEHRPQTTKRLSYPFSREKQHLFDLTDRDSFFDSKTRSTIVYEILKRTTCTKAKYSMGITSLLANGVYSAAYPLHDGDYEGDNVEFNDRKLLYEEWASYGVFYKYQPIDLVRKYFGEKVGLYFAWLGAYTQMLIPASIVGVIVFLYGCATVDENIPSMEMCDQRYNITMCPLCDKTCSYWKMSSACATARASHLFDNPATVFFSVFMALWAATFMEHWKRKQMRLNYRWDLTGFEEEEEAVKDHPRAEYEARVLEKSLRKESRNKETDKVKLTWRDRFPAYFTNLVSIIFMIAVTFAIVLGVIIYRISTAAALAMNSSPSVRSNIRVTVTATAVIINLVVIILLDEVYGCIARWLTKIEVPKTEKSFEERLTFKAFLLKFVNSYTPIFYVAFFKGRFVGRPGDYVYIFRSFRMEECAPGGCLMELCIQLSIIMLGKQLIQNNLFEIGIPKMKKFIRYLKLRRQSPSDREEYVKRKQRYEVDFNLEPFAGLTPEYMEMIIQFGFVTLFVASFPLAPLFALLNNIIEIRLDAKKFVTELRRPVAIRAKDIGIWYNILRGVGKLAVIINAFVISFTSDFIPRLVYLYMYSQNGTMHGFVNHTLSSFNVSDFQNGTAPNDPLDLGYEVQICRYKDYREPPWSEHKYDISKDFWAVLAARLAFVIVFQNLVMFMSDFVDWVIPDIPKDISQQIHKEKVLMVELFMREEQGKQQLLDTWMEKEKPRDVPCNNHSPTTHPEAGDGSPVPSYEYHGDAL
Kind of assay: whole-cell patch clamp in HEK293T cells, dose-response at −[…] mV.

Assay [2] concerns the target T1, mouse anoctamin 1 (mANO1). Kind of assay: whole-cell patch clamp in HEK293T cells at […].

human TRPA1 (hTRPA1), sequence (O75762 whole entry): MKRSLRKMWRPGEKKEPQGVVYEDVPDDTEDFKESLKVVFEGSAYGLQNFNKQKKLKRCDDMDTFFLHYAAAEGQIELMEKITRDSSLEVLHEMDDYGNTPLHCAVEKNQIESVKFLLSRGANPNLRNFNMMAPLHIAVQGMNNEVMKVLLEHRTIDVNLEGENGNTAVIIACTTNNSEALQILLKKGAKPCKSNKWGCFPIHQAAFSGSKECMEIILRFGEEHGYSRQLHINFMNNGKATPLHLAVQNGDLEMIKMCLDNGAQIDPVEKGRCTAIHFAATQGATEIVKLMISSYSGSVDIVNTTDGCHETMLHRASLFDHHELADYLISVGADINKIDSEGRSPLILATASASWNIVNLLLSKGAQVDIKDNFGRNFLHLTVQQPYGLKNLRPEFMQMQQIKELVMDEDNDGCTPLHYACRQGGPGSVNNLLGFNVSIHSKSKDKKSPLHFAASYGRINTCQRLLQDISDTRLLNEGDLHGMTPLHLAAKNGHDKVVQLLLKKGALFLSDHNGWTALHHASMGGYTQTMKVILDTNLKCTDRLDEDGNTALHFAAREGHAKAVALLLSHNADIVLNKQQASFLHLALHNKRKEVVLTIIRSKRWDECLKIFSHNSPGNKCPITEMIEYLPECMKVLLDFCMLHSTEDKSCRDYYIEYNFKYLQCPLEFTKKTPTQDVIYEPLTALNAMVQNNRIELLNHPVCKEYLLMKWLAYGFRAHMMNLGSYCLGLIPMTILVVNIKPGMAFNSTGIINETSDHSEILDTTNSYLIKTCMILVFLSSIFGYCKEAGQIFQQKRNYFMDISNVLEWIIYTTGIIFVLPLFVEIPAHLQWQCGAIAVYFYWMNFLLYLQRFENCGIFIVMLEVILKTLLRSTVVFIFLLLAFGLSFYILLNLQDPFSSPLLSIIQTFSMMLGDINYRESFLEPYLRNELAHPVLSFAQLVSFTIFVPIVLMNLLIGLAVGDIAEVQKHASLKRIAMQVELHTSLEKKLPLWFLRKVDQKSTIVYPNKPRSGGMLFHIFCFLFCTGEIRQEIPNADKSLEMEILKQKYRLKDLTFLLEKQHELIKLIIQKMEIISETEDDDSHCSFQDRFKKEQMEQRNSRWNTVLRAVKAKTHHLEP

Consider `CC(C)C1CCC(O)CC1` (stereo not shown) [4-iPr-CyH-OH, 4-isopropylcyclohexanol], for which the “whole-cell patch clamp in HEK293T cells; inhibits AITC currents at 3 mM and weak” value on human TRPA1 (hTRPA1) is 4-iPr-CyH-OH did not activate hTRPV1 (Fig. 5d), yet did slightly but significantly activate hTRPA1. The compound further came in with an IC50 in assay [1] of 1090 µM.

`CC(C)C1CCCCC1` [iPr-CyH, isopropylcyclohexane]: the “whole-cell patch clamp in HEK293T cells at 3 mM” value in assay [2] is “isopropylcyclohexane (iPr-CyH) strongly inhibited mANO1 currents to a similar degree as that seen for d-menthol”.

Regarding `CC(C)[C@@H]1CC[C@@H](C)C[C@H]1O` [l-menthol], in assay [1], the IC50 is 441 µM.

The values are drawn from publication PMC5320485, “4-isopropylcyclohexanol has potential analgesic effects through the inhibition of anoctamin 1, TRPV1 and TRPA1 channel activities” (Scientific Reports, 2017).
